Key:
Type in all cases: in vivo, human
[1] = system: inflammations caused by foreign bodies (cat hair, cat dander, pollens of a tree, ragweed or grass) instilled in the eye; experiment: Itching on the eye after ocular instillation of foreign bodies, 3 hours after FK506 eye drops (Example 1); conditions: foreign bodies 3 hours after instillation, graded 5 minutes later, score 0-4, FIG. 1
Description: In a total of four groups each having 30 persons, FK506 eye drops (0.01%, 0.06% and 0.1%) were instilled in the respective experimental groups, and placebo was instilled in the control group. Three hours after the ocular instillation, various foreign bodies (cat hair, cat dander, and pollens of a tree, ragweed or grass) were ocularly instilled in both the experimental groups and the control group, thus causing inflammations. Five minutes later, itching on the eye was graded according to five-rank scores (0-4). The decreases from the score (baseline) in instilling only foreign bodies were calculated.

[2] = system: penetrating keratoplasty due to keratoconus; experiment: Patient case, FK506 eye drops after penetrating keratoplasty due to keratoconus (Example 9); conditions: 0.06% FK506 eye drops three times a day
[3] = system: inflammations caused by injury after penetrating keratoplasty, history of steroid glaucoma and chronic rejection; experiment: Patient case, FK506 eye drops after penetrating keratoplasty (Example 7); conditions: 0.06% FK506 eye drops three times a day
Description: As a result, the progression of inflammations caused by injury was arrested and such effects were maintained at 34 weeks later.

[4] = system: blepharokeratoconjunctivitis; experiment: Patient case, FK506 eye drops (Example 8); conditions: 0.06% FK506 eye drops three times a day
[5] = system: chronic nummular keratitis; experiment: Patient case, FK506 eye drops (Example 5); conditions: 0.06% FK506 eye drops three times a day, one patient
Description: A patient suffering from chronic nummular keratitis was instilled with 0.06% FK506 eye drops three times a day.

[6] = system: progressive Mooren's ulcer; experiment: Patient case, FK506 eye drops (Example 4); conditions: 0.06% FK506 eye drops three times a day, one patient
Description: A patient suffering from progressive Mooren's ulcer was instilled with 0.06% FK506 eye drops three times a day.

[7] = system: progressive corneal ulcer caused by pemphigoid; experiment: Patient case, FK506 eye drops (Example 3); conditions: 0.06% FK506 eye drops three times a day, one patient
Description: A patient suffering from progressive corneal ulcer caused by pemphigoid was instilled with 0.06% FK506 eye drops three times a day.

[8] = system: Thygeson keratitis; experiment: Patient case, FK506 eye drops (Example 6); conditions: 0.06% FK506 eye drops three times a day
[9] = system: inflammations caused by foreign bodies (cat hair, cat dander, pollens of a tree, ragweed or grass) instilled in the eye; experiment: Conjunctival hyperemia and chemosis after ocular instillation of foreign bodies, 16 hours after final instillation (Example 2); conditions: 0.1% FK506 eye drops once a day for one week
Procedure: FK506 was ocularly instilled in the subjects once a day for one week, and the same amount of placebo was ocularly instilled in the control group. At 16 hours after the final ocular instillation, various foreign bodies (cat hair, cat dander, and pollens of a tree, ragweed or grass) were ocularly instilled in both the experimental groups and the control group, thus causing the inflammations. Ten minutes later, conjunctival hyperemia and chemosis were graded according to five-rank scores (0-4). The changes from the score (baseline) in instilling only foreign bodies were calculated.

[10] = one patient without conventional therapy

In the case of `C=CC[C@@H]1/C=C(\C)C[C@H](C)C[C@H](OC)[C@H]2O[C@@](O)(C(=O)C(=O)N3CCCC[C@H]3C(=O)O[C@H](/C(C)=C/[C@@H]3CC[C@@H](O)[C@H](OC)C3)[C@H](C)[C@@H](O)CC1=O)[C@H](C)C[C@@H]2OC` [FK506, 17-allyl-1,14-dihydroxy-12-[2-(4-hydroxy-3-methoxycyclohexyl)-1-methylvinyl]-23,25-dimethoxy-13,19,21,27-tetramethyl-11,28-dioxa-4-azatricyclo [22.3.1.0^4,9]octacos-18-ene-2,3,10,16-tetraone], the “decreases of itching score from the baseline, compared with placebo” value (“decreases of itching score” for short) ([1]; 0.01% FK506 eye drops) was “decreases of itching were greater”, the “decreases of itching score” value ([1]; 0.06% FK506 eye drops) was “decreases of itching were greater” and the “decreases of itching score” value ([1]; 0.1% FK506 eye drops) was “decreases of itching were greater”. The “time at which effects were maintained” value ([2]; one patient) was 25 weeks, the improving effects [2, 10] was “significant improving effects were observed” and the “progression of inflammations caused by injury” value ([3]; one patient) was “arrested”. The “time at which effects were maintained” value ([3]; one patient) was 34 weeks, the intraocular pressure increase ([3]; patient with history of steroid glaucoma) was “no intraocular pressure increase was observed” and the “time at which effects were maintained” value ([4]; one patient) was 18 weeks. For the same molecule, the “time until improving effects were observed” value ([4]; one patient) was “two”, the improving effects [4, 10] was “significant improving effects were observed” and the improving effects [5] was “significant improving effects were observed”. The “time at which effects were maintained” value [5] was 43 weeks, the “time until improving effects were observed” value [5] was “two” and the improving effects [6] was “significant improving effects were observed”. The “time at which effects were maintained” value [6] was 41 weeks, the improving effects [7] was “significant improving effects were observed” and the “time at which effects were maintained” value [7] was 43 weeks. For the same molecule, the “time at which effects were maintained” value ([8]; one patient) was 41 weeks, the “time until improving effects were observed” value ([8]; one patient) was “three” and the improving effects [8, 10] was “significant improving effects were observed”. The “duration of ocular anti-inflammatory effects (antiedemic effect and anti-flare effect)” value [9] was “at least 16 hours”, the “Changes of chemosis scores from the baseline, mean ± S.E.” value ([9]; challenge 16 hours after final instillation, graded 10 minutes later, score 0-4, p < 0.001) was −0.30 ± 0.07 and the “Changes of conjunctival hyperemia scores from the baseline, mean ± S.E.” value ([9]; challenge 16 hours after final instillation, graded 10 minutes later, score 0-4, p < 0.01) was −0.51 ± 0.07.

From US20020187998A1, “Local ophthalmic agent for treatment of ocular inflammation” (Sucampo AG, priority 2001, published 2002)
